Data as given in DBAASP.
Values after ≈ are worked out from the molar mass of the structure shown.

Key:
Experiment in all cases: ≥ marks a high value that may be exact or a test limit, other limits are often not marked, values filed in µg/mL are converted to µM
[1] = system: Escherichia coli ATCC 43827
[2] = system: Pseudomonas aeruginosa ATCC 27853
[3] = system: Staphylococcus aureus ATCC 25923
[4] = system: Escherichia coli ATCC 25922
[5] = system: Escherichia coli ATCC 11775
[6] = system: Bacillus subtilis var. niger ATCC 9372
[7] = system: Bacillus anthracis Sterne 34F2
Escherichia coli K91BK = system: Escherichia coli K91BK
[8] = system: Klebsiella aerogenes CGMCC 1.876
[9] = system: Klebsiella pneumoniae subsp. pneumoniae CGMCC 1.176
[10] = system: Enterococcus faecalis CGMCC 1.595
[11] = system: Staphylococcus aureus AS1.72
[12] = system: Lactococcus lactis AS1.1690
[13] = system: Pseudomonas aeruginosa CGMCC 1.860
Bacillus cereus AS1.126 = system: Bacillus cereus AS1.126
[14] = system: Enterococcus faecium CGMCC 1.2334
[15] = system: Enterobacter cloacae CGMCC 1.58
Escherichia coli AS1.349 = system: Escherichia coli AS1.349
[16] = system: Enterococcus faecalis ATCC 29212
[17] = system: Pseudomonas aeruginosa CUN 4158-02
[18] = system: Acinetobacter baumannii ATCC 19606
[19] = system: Brucella abortus 9.49 (per-)
[20] = system: Escherichia coli ATCC 23716
Yersinia pestis KIM pYV = system: Yersinia pestis KIM pYV
[21] = system: Bordetella bronchiseptica CUN 11844-99
[22] = system: Staphylococcus aureus ATCC 43300
[23] = system: Streptococcus pneumoniae ATCC 49619
[24] = system: Mycobacterium tuberculosis H37Rv
[25] = system: Micrococcus luteus NBRC 12708
[26] = system: Pseudomonas aeruginosa NBRC 12582
[27] = system: Escherichia coli NBRC 14237
[28] = system: Staphylococcus aureus NBRC 12732
[29] = system: Escherichia coli ATCC 10536
[30] = system: Staphylococcus aureus ATCC 9144
[31] = system: Klebsiella pneumoniae ATCC 27736
[32] = system: Bacillus subtilis ATCC 6633
[33] = system: Pseudomonas aeruginosa ATCC BAA-427
[34] = system: Escherichia coli DH5alpha
Staphylococcus aureus = system: Staphylococcus aureus
[35] = system: Staphylococcus aureus ATCC 6538P
Escherichia coli JM109 = system: Escherichia coli JM109

CSCC[C@H](NC(=O)[C@H](CCCN=C(N)N)NC(=O)[C@H](Cc1c[nH]c2ccccc12)NC(=O)[C@H](CCC(N)=O)NC(=O)[C@H](Cc1c[nH]c2ccccc12)NC(=O)[C@H](CCCN=C(N)N)NC(=O)[C@@H](N)CCCN=C(N)N)C(=O)N[C@@H](CCCCN)C(=O)N[C@@H](CCCCN)C(=O)N[C@@H](CC(C)C)C(=O)NCC(=O)O [RRWQWRMKKLG]
MIC [1]: 7 µM (≈ 10.8 µg/mL)
MIC [2]: 15 µM (≈ 23.2 µg/mL)
MIC [3]: 30 µM (≈ 46.3 µg/mL)
MIC [4]: 15 µM (≈ 23.2 µg/mL)
MIC [5]: 15 µM (≈ 23.2 µg/mL)

CC[C@H](C)[C@H](NC(=O)CNC(C)=O)C(=O)NCC(=O)N[C@@H](CCCCN)C(=O)N[C@@H](Cc1ccccc1)C(=O)N[C@@H](CC(C)C)C(=O)N[C@@H](CCCCN)C(=O)N[C@@H](CCCCN)C(=O)N[C@@H](C)C(=O)N[C@@H](CCCCN)C(=O)N[C@@H](CCCCN)C(=O)N[C@@H](Cc1ccccc1)C(=O)NCC(=O)N[C@@H](CCCCN)C(=O)N[C@@H](C)C(=O)N[C@@H](Cc1ccccc1)C(=O)N[C@H](C(=O)N[C@@H](CCCCN)C(=O)N[C@H](C(=O)N[C@@H](CC(C)C)C(=O)N[C@@H](CCCCN)C(=O)N[C@@H](CCCCN)C(N)=O)[C@@H](C)CC)C(C)C [GIGKFLKKAKKFGKAFVKILKK]
MIC [6]: 1.56 µM (≈ 3.93 µg/mL)
MIC [7]: 25 µM (≈ 63 µg/mL)
MIC (Escherichia coli K91BK): ≥ 100 µM

NC(N)=NCCC[C@H](NC(=O)[C@H](CCCN=C(N)N)NC(=O)[C@H](Cc1c[nH]c2ccccc12)NC(=O)[C@H](Cc1ccccc1)NC(=O)[C@H](CCCN=C(N)N)NC(=O)[C@H](CCCN=C(N)N)NC(=O)[C@H](Cc1c[nH]c2ccccc12)NC(=O)[C@@H](N)CCCN=C(N)N)C(=O)O [RWRRFWRR]
MIC [8]: ≥ 100 µM
MIC [9]: ≥ 100 µM
MIC [10]: 12.5 µM (≈ 16.5 µg/mL)
MIC [11]: 6.25 µM (≈ 8.24 µg/mL)
MIC [12]: 6.25 µM (≈ 8.24 µg/mL)
MIC [13]: 6.25 µM (≈ 8.24 µg/mL)
MIC (Bacillus cereus AS1.126): 3.13 µM (≈ 4.13 µg/mL)
MIC [14]: 12.5 µM (≈ 16.5 µg/mL)
MIC [15]: ≥ 100 µM
MIC (Escherichia coli AS1.349): ≥ 50 µM

CSCC[C@H](NC(=O)[C@H](CCCN=C(N)N)NC(=O)[C@H](Cc1c[nH]c2ccccc12)NC(=O)[C@H](CCC(N)=O)NC(=O)[C@H](Cc1c[nH]c2ccccc12)NC(=O)[C@H](CCCN=C(N)N)NC(=O)[C@H](CCCN=C(N)N)NC(=O)[C@H](C)NC(=O)[C@H](CCCCN)NC(=O)[C@@H](N)Cc1ccccc1)C(=O)N[C@@H](CCCCN)C(=O)N[C@@H](CCCCN)C(=O)N[C@@H](CC(C)C)C(=O)NCC(=O)N[C@@H](C)C(=O)O [FKARRWQWRMKKLGA]
MIC [1]: 12 µM (≈ 23.5 µg/mL)
MIC [2]: 48 µM (≈ 94.2 µg/mL)
MIC [3]: 48 µM (≈ 94.2 µg/mL)
MIC [4]: 24 µM (≈ 47.1 µg/mL)
MIC [5]: ≥ 48 µM
MIC [16]: 48 µM (≈ 94.2 µg/mL)

CC[C@H](C)[C@H](N)C(=O)N[C@@H](CO)C(=O)N[C@@H](CCCCN)C(=O)N[C@@H](CCCN=C(N)N)C(=O)N[C@H](C(=O)N[C@@H](CC(C)C)C(=O)N[C@H](C(=O)NCC(=O)N[C@@H](CCCCN)C(=O)N[C@@H](CCCCN)C(N)=O)[C@@H](C)O)[C@@H](C)CC [ISKRILTGKK]
MIC [17]: ≥ 224 µM
MIC [18]: > 224 µM
MIC [19]: ≥ 56 µM
MIC [20]: ≥ 224 µM
MIC [4]: > 224 µM
MIC (Yersinia pestis KIM pYV): ≥ 224 µM
MIC [21]: ≥ 224 µM
MIC [22]: > 224 µM

NCCCC[C@H](NC(=O)CNC(=O)CNC(=O)[C@H](CCCCN)NC(=O)[C@H](CCCCN)NC(=O)[C@H](Cc1cnc[nH]1)NC(=O)[C@H](CS)NC(=O)[C@H](CCC(N)=O)NC(=O)[C@H](CCCCN)NC(=O)[C@@H](N)Cc1ccc(O)cc1)C(=O)N[C@@H](CCCCN)C(=O)NCC(=O)N[C@@H](CO)C(=O)NCC(N)=O [YKQCHKKGGKKGSG]
MIC [23]: ≥ 300 µM
MIC [24]: ≥ 300 µM

CC[C@H](C)[C@H](NC(=O)CNC(=O)[C@H](C)NC(=O)[C@H](CC(C)C)NC(=O)[C@H](CC(C)C)NC(=O)CNC(=O)[C@@H]1CCCN1C(=O)[C@H](CC(C)C)NC(=O)[C@H](CC(C)C)NC(=O)[C@H](CC(N)=O)NC(=O)[C@H](CC(C)C)NC(=O)[C@H](CC(C)C)NC(=O)[C@@H](N)CCCCN)C(=O)N[C@@H](Cc1ccccc1)C(N)=O [KLLNLLPGLLAGIF]
MIC [25]: 25 µM (≈ 37 µg/mL)
MIC [26]: ≥ 50 µM
MIC [27]: 12.5 µM (≈ 18.5 µg/mL)
MIC [28]: 12.5 µM (≈ 18.5 µg/mL)

CC[C@H](C)[C@H](NC(=O)CN)C(=O)NCC(=O)N[C@@H](C)C(=O)N[C@H](C(=O)N[C@H](C(=O)N[C@@H](CCCCN)C(=O)N[C@H](C(=O)N[C@@H](CC(C)C)C(=O)N[C@H](C(=O)N[C@H](C(=O)NCC(=O)N[C@H](C(=O)N1CCC[C@H]1C(=O)N[C@@H](C)C(=O)N[C@H](C(=O)N[C@H](C(=O)N[C@@H](CO)C(=O)N[C@@H](Cc1c[nH]c2ccccc12)C(=O)N[C@H](C(=O)N[C@@H](CCCCN)C(=O)N[C@@H](CCCN=C(N)N)C(=O)N[C@@H](CCCCN)C(=O)N[C@@H](CCCN=C(N)N)C(=O)N[C@@H](CCC(N)=O)C(=O)N[C@@H](CCC(N)=O)C(N)=O)[C@@H](C)CC)[C@@H](C)CC)C(C)C)C(C)C)[C@@H](C)O)[C@@H](C)O)C(C)C)C(C)C)C(C)C [GIGAVVKVLTTGVPAVISWIKRKRQQ]
MIC [29]: 3.3 µM (≈ 9.25 µg/mL)
MIC [30]: 3 µM (≈ 8.41 µg/mL)
MIC [31]: 2.1 µM (≈ 5.89 µg/mL)
MIC [32]: 2.5 µM (≈ 7.01 µg/mL)
MIC [33]: 12 µM (≈ 33.7 µg/mL)
MIC [34]: 3.5 µM (≈ 9.82 µg/mL)

CC[C@H](C)[C@H](NC(=O)[C@H](C)NC(=O)[C@H](CC(C)C)NC(=O)[C@H](CS)NC(=O)[C@H](CCCN=C(N)N)NC(=O)[C@H](C)NC(=O)[C@H](C)NC(=O)[C@H](CS)NC(=O)[C@@H](N)CC(C)C)C(=O)NCC(=O)N[C@@H](CCCN=C(N)N)C(=O)N[C@@H](CCCN=C(N)N)C(N)=O [LCAARCLAIGRR]
MIC (Staphylococcus aureus): > 49.1 µM
MIC [35]: 5.76 µM (≈ 7.49 µg/mL)
MIC (Escherichia coli JM109): 24.6 µM (≈ 32 µg/mL)

CC(=O)N[C@@H](CCCCN)C(=O)N[C@@H](CC(C)C)C(=O)N[C@@H](Cc1c[nH]c2ccccc12)C(=O)N[C@@H](CCCCN)C(=O)N[C@@H](CCCCN)C(=O)N[C@@H](Cc1c[nH]c2ccccc12)C(=O)N[C@@H](CCCCN)C(=O)N[C@@H](CCCCN)C(=O)N[C@@H](Cc1c[nH]c2ccccc12)C(=O)N[C@@H](CCCCN)C(=O)N[C@@H](CCCCN)C(N)=O [KLWKKWKKWKK]
MIC [6]: 25 µM (≈ 40.7 µg/mL)
MIC [7]: ≥ 100 µM
MIC (Escherichia coli K91BK): ≥ 100 µM
